The values below come from ChEMBL document CHEMBL1201862, “PubChem BioAssay data set” (2004).

The structures appear in SMILES notation.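 Briefly, cells in 96-well plates were exposed to five compound concentrations for 48 h, and endpoints were estimated by linear interpolation. The concentration for 50% growth inhibition is given as GI50.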 Calls of active or inactive are those of the source. Rule as the data show it: active = GI50 up to about 1.1 µM and inactive = higher.

Some test systems named below: SNB-78; DMS-114; DLD-1; HOP-18; DMS-273; LXFL 529; MDA-N; XF498.
What all share (experiment): inhibition of tumour cell growth, NCI panel, 48 h

Take `C[N+]1(C)C/C(=C\c2ccncc2)C(=O)/C(=C/c2ccncc2)C1`: the GI50 in the assay with SNB-78, with DMS-114, with DLD-1, in the assay with HOP-18, with DMS-273 and in the assay with LXFL 529 was > 100 µM (inactive) each time.

With `CC(=O)OCC(C)C1=C(O)C(=O)C2(C)C/C=C(/C)CC/C=C(\C)CCC(O)C(C)CCC12` (stereo unspecified), the GI50 in the assay with MDA-N is 17 µM (inactive).

With `CC(=O)OC1CC2c3cccc4c3C(CC2N(C)C1=O)CN4C(=O)c1ccccc1` (stereo unspecified), the GI50 with MDA-N is 21.7 µM (inactive).

Consider `CC(C)=CCc1ccc2[nH]c3c(c2c1)C(=O)C(=O)C(C)=C3C(O)C(C)O` (stereo unspecified), for which, in the assay with MDA-N, the GI50 was 3.06 µM (inactive).

On to `C=C(C)C(=O)O[C@H]1[C@H]2[C@H](OC(=O)[C@H]2C)[C@H](O)[C@@H](C)[C@@H]2C=CC(=O)[C@]21C`, for which the GI50 with MDA-N is 2.58 µM (inactive).

For the compound `CCOC(=O)c1c(C)n(Cc2ccc(Cl)cc2Cl)c2c1cc(O)c1[nH]c3c(c12)CCCC3`, the GI50 in the assay on MDA-N is 21.2 µM (inactive).

`COc1cc(C2C(Cl)C(=O)N2NC(=O)Cc2ccccc2)cc(Br)c1O` (stereo unspecified): the GI50 was > 100 µM (inactive) in the assay on SNB-78; 45 µM (inactive) in the assay with DMS-114; 86.9 µM (inactive) with DLD-1; 71.6 µM (inactive) with HOP-18; > 100 µM (inactive) in the assay with DMS-273; 86.3 µM (inactive) in the assay on LXFL 529. Besides, the GI50 with XF498 was > 100 µM (inactive).

For `O=C1C2=Cc3ccccc3OC2(O)Oc2ccccc21` (stereo unspecified), the GI50 with MDA-N is > 100 µM (inactive).

Turning to `Nc1c(-c2nc3ccccc3s2)[n+]([O-])c2ccccc2[n+]1[O-]`, the GI50 in the assay on SNB-78 is 63 µM (inactive); in the assay on DMS-114, 34.2 µM (inactive); in the assay on DLD-1, 33 µM (inactive); with HOP-18, 23.5 µM (inactive); with LXFL 529, 28.4 µM (inactive).

On to `CC(=O)Oc1cccc2c(/C=N/NC(N)=S)ncc(C)c12`, for which the GI50 with MDA-N was 3.59 µM (inactive).

Turning to `O=C1CC23CC(=O)CC2(C1)c1ccccc1C3=O` (stereo unspecified), the GI50 in the assay on SNB-78, in the assay on DMS-114, with DLD-1, in the assay on HOP-18, in the assay on DMS-273 and in the assay with LXFL 529 was > 100 µM (inactive) each time. In the assay on XF498, the GI50 was > 100 µM (inactive).

For `Cc1ccc(NCC2CC/C(=C\c3ccc(Cl)cc3)C2=O)cc1` (stereo unspecified), the GI50 in the assay with MDA-N was 13.6 µM (inactive).

As for `COc1ccc(OCc2ccc3nc(-c4ccccc4)c(Cl)nc3c2)cc1`, the GI50 with MDA-N was 52.7 µM (inactive).

Take `NC(=O)c1cc(-c2ccc(-n3ccnc3)cc2)nnc1O`: in the assay with MDA-N, the GI50 is > 100 µM (inactive).

Regarding `CS(C)(=O)=N/C=C\C(=O)C(Cl)(Cl)Cl`, the GI50 in the assay with MDA-N is 65.2 µM (inactive).

Consider `CN(CCNC(=O)c1nn(-c2ccc(Cl)cc2Cl)c2c1Cc1ccccc1-2)CCNC(=O)c1nn(-c2ccc(Cl)cc2Cl)c2c1Cc1ccccc1-2`, for which the GI50 in the assay with MDA-N is 2.25 µM (inactive).

`COc1ccc(NC(S)=Nc2ccccc2)cc1`: in the assay on MDA-N, the GI50 was > 100 µM (inactive).

As to `COc1ccc(C(=O)N2c3ccccc3N(C)n3cccc3C2CC(=O)O)cc1` (stereo unspecified), the GI50 in the assay with SNB-78, with DMS-114, with DLD-1, in the assay with DMS-273 and in the assay with LXFL 529 was > 100 µM (inactive) in each case.

Consider `S=C(NCCc1ccccn1)N/N=C(\c1ccccc1)c1ccccn1`, for which, in the assay on MDA-N, the GI50 was 8.2 µM (inactive).

Take `CCC(C)C(NC(=O)C(CCCCN)NC(=O)C(NC(=O)C(CCC(N)=O)NC(=O)C(CCCNC(=N)N)NC(C)=O)C(C)CC)C(=O)NC(Cc1c[nH]c2ccccc12)C(=O)NC(Cc1ccccc1)C(=O)NC(CCC(N)=O)C(=O)NC(CC(N)=O)C(=O)NC(CCCNC(=N)N)C(=O)NC(CCCNC(=N)N)C(=O)NC(CCSC)C(=O)NC(CCCCN)C(=O)NC(Cc1c[nH]c2ccccc12)C(=O)NC(CCCCN)C(=O)NC(CCCCN)C(N)=O` (stereo unspecified): the GI50 with MDA-N is > 50 µM (inactive).

As for `CCCCCCC1CC(=O)C1(Cl)Cl` (stereo unspecified), in the assay on MDA-N, the GI50 was 25.9 µM (inactive).

As to `CCN(CC)CCc1c2c(nc3ccccc13)C(=O)c1cccnc1C2=O`, in the assay with MDA-N, the GI50 was 1.67 µM (inactive).

With `c1ccc(CCN(Cc2nc3ccccc3[nH]2)Cc2nc3ccccc3[nH]2)cc1`, the GI50 in the assay with MDA-N is 16.2 µM (inactive).

For the compound `O=C(NC(=S)Nc1ccc2c(c1)Sc1ccccc1O2)c1ccc([N+](=O)[O-])cc1`, the GI50 in the assay on MDA-N is > 100 µM (inactive).

For `Cc1noc(C)c1CCCOC1COc2ccccc2OCCOCCOc2ccccc2OC1`, the GI50 in the assay with SNB-78, in the assay with DMS-114, in the assay with DLD-1, with HOP-18, in the assay with DMS-273 and with LXFL 529 was > 100 µM (inactive) each time. Besides, the GI50 in the assay on XF498 is > 100 µM (inactive).

With `Cc1cc2c(c(N)c1C)C(=O)c1ccccc1C2=O`, the GI50 is > 100 µM (inactive) with SNB-78; 32.1 µM (inactive) in the assay on DMS-114; 62.7 µM (inactive) with DLD-1; 1.56 µM (inactive) in the assay with HOP-18; 24.4 µM (inactive) in the assay on DMS-273; 28.8 µM (inactive) in the assay with LXFL 529.

Turning to `C=C1C(C(=O)OC)[C@H]1C(=O)OC` (stereo partly specified), in the assay on MDA-N, the GI50 was > 100 µM (inactive).

Regarding `COc1ccc(-c2nnc(-c3c(C)n(C)n(-c4ccccc4)c3=O)o2)cc1`, the GI50 is 68.7 µM (inactive) in the assay with SNB-78; > 100 µM (inactive) in the assay with DMS-114; > 100 µM (inactive) in the assay on DLD-1; > 100 µM (inactive) in the assay on HOP-18; > 100 µM (inactive) with DMS-273; > 100 µM (inactive) in the assay on LXFL 529. Besides, in the assay with XF498, the GI50 was > 100 µM (inactive).

`CCOP(=O)(OCC)C1C(CO)OC(n2ccc(=O)[nH]c2=O)C1O` (stereo unspecified): the GI50 in the assay with MDA-N is > 100 µM (inactive).

As to `CC(C)(C)C1=CC(C)(n2[nH]c(=O)n(-c3ccccc3)c2=O)C=C(C(C)(C)C)C1=O`, in the assay on MDA-N, the GI50 is > 100 µM (inactive).

In the case of `CC1=Nc2nc3ccccc3n2C(C)(C)C1`, in the assay on MDA-N, the GI50 was > 100 µM (inactive).

For the compound `CCc1ccc(/N=C\c2cc(OC)c(OC)c(OC)c2)cc1`, the GI50 in the assay on SNB-78 was > 100 µM (inactive); in the assay on DMS-114, 40.4 µM (inactive); in the assay with DLD-1, 77.8 µM (inactive); in the assay on HOP-18, > 100 µM (inactive); in the assay on DMS-273, > 100 µM (inactive); in the assay with LXFL 529, 51.9 µM (inactive). Moreover, the GI50 in the assay with XF498 was > 100 µM (inactive).

Regarding `C[C@H](CCC1=NCCN1)[C@H]1CC[C@H]2[C@@H]3CC[C@@H]4C[C@H](O)CC[C@]4(C)[C@H]3CC[C@]12C`, the GI50 in the assay with MDA-N is 10.1 µM (inactive).

Consider `Cc1ccc(NC(=O)C(=O)C2C(=O)NC(=O)NC2=O)cc1C`, for which the GI50 in the assay with SNB-78, in the assay with DLD-1, in the assay with HOP-18, in the assay with DMS-273, in the assay on LXFL 529 and in the assay on XF498 was > 100 µM (inactive) throughout.

On to `O=C1NC2CCCCC2NC1=C(C(=O)c1ccccc1)C(=O)c1ccccc1` (stereo unspecified), for which, in the assay with MDA-N, the GI50 was 70.3 µM (inactive).

In the case of `Oc1cnnc2nc3ccccc3n12`, the GI50 in the assay on MDA-N was > 100 µM (inactive).

Consider `Cc1cc(S(=O)(=O)Nc2nc(N)nc(N3CCOCC3)n2)c(SCC(=O)O)cc1Cl`, for which the GI50 with MDA-N was > 10 µM (inactive).

For `CCOC(=O)/C=C(/C(=O)OCC)n1ccc(=O)[nH]c1=O`, the GI50 in the assay with MDA-N is 10.8 µM (inactive).

With `COc1cc(COC(=O)NC(Cc2cccs2)C(=O)O)c([N+](=O)[O-])cc1OC` (stereo unspecified), in the assay with MDA-N, the GI50 is > 100 µM (inactive).

In the case of `COc1c(C)c2nc3ccccc3nc2c2c(O)ccnc12`, the GI50 in the assay with MDA-N is > 100 µM (inactive).

For the compound `O=C1C=C(Cl)C(=O)C(c2ccc(Cl)cc2)=C1`, in the assay with MDA-N, the GI50 is 13.3 µM (inactive).

Consider `NC(=S)N/N=C/c1c[nH]c2ccccc12`, for which the GI50 in the assay with MDA-N is > 100 µM (inactive).

Turning to `C=C(CN(C)C)C1(c2ccccc2)CC2(CCCC2)C(=O)O1` (stereo unspecified), in the assay with MDA-N, the GI50 is 44.8 µM (inactive).

As to `CN(C(=O)c1ccccc1)C1CCCC(=O)CC1` (stereo unspecified), the GI50 in the assay on MDA-N is > 100 µM (inactive).

With `CC1=NN(c2cccc(S(=O)(=O)O)c2)C2(C1)C(Cl)C(=O)N2c1nc2ccccc2s1` (stereo unspecified), the GI50 in the assay with MDA-N is 13.1 µM (inactive).

As for `CCOC(=O)CC1=N/C(=N/c2cc(Cl)ccc2Cl)SC1`, the GI50 in the assay on SNB-78 is > 100 µM (inactive); with DMS-114, 38.5 µM (inactive); in the assay on DLD-1 it was 91.8 µM (inactive); in the assay with HOP-18, > 100 µM (inactive); with DMS-273, > 100 µM (inactive); in the assay on LXFL 529 it was > 100 µM (inactive). In addition, in the assay on XF498, the GI50 is > 100 µM (inactive).

Take `COc1cc(Nc2cnc3cc(F)c(F)cc3n2)cc(OC)c1`: the GI50 in the assay on MDA-N is > 100 µM (inactive).

As for `CN1CCc2c(sc3ncn(N)c(=N)c23)C1`, in the assay on MDA-N, the GI50 was > 100 µM (inactive).

As for `COc1cc2nc(-c3c(F)cccc3F)n(Cc3c(F)cccc3F)c2cc1Cc1c(F)cccc1F`, the GI50 in the assay on MDA-N was > 100 µM (inactive).

Turning to `CCC1CCc2c(OC)ccc(OCC(=O)O)c2C1=O` (stereo unspecified), the GI50 in the assay with SNB-78, in the assay on DMS-114, with DLD-1, in the assay on DMS-273, in the assay with LXFL 529 and with XF498 was > 100 µM (inactive) throughout.

On to `CCOC(=N)CC(=O)Nc1ccc(Cl)cc1`, for which the GI50 is > 100 µM (inactive) in the assay on SNB-78; > 100 µM (inactive) with DLD-1; 1.73 µM (inactive) with HOP-18; > 100 µM (inactive) with DMS-273; > 100 µM (inactive) with LXFL 529; > 100 µM (inactive) in the assay with XF498.

Take `CCOC(=O)Nn1c(C)cc(C(=O)OC)c1C`: the GI50 in the assay on SNB-78, with DMS-114, with DLD-1, in the assay with DMS-273, in the assay on LXFL 529 and in the assay with XF498 was > 100 µM (inactive) throughout.

For the compound `CCNC1=C(NC(=O)c2ccc(OC)cc2)C(=O)c2ccccc2C1=O`, the GI50 in the assay on MDA-N is 37.2 µM (inactive).

`COc1ccc(C2CC(c3ccc4ccccc4c3O)=NN2)cc1OC` (stereo unspecified): the GI50 in the assay on MDA-N is 21 µM (inactive).

As to `c1ccc2c3c(ccc2c1)CSCc1ccc2ccccc2c1-3`, the GI50 with MDA-N is > 100 µM (inactive).

Regarding `CC(=O)OCc1cc(CCC(=O)NCCNc2c3ccccc3nc3ccccc23)cc(COC(C)=O)c1O[Si](C)(C)C(C)(C)C`, in the assay on MDA-N, the GI50 was 5.85 µM (inactive).

With `O=C(C#Cc1cn(C2CC(O)C(CO)O2)c(=O)[nH]c1=O)c1ccccc1` (stereo unspecified), the GI50 with MDA-N was 60.3 µM (inactive).
